“Also recorded” adds a separate entry of the source.
Legend:
[1] = system: cancer cells; assay: List of active compounds: types of cancers and precancers active against; format: cell-based
Source text: As discussed, the adamantyl retinoid derivatives according to the invention which induce apoptosis are useful for treating many different types of cancers.

[2] = system: various human cancer cell lines; assay: Anti-cancer activity against human cancer cell lines over a concentration range (FIGS. 2-4); format: cell-based; settings: retinoid concentrations 10^−9 M to 10^−5 M
Source text: FIG. 2 compares the activity of selected adamantyl retinoids according to the invention and all-trans-retinoic acid against a human non-small lung carcinoma cell line.
FIG. 3 compares the activity of selected adamantyl retinoids according to the invention and all-trans-retinoic acid against human prostate adenocarcinoma, human metastatic prostate adenocarcinoma, and human prostate carcinoma cell lines.
FIG. 4 compares the activity of selected adamantyl retinoids according to the invention and all-trans-retinoic acid against a human liver cancer cell line.

[3] = system: human pancreatic cancer BxPC-3 tumor cells; assay: Human xenograft mouse animal model, pancreatic cancer BxPC-3; format: in vivo; settings: 80 mg/kg intraperitoneally, starting 28 days after inoculation; compared to vehicle control group; FIG. 5
Protocol: The anti cancer activity of a compound according to the invention, 6-[3-(1-adamantyl)-4,5-methylenedioxyphenyl]-2-naphthoic acid was also evaluated in a human xenograft mouse animal model containing human pancreatic cancer BxPC-3 tumor cells. Starting twenty-eight days after inoculation of tumor cells, said xenograft containing mice were administered the retinoid compound intraperitoneally at a dosage of 80 mg/kg body weight. Also, a control group of said mice was inoculated under similar conditions with the pharmaceutical vehicle used for formulation (but lacking the retinoid compound).

[4] = system: human cervical cancer cell lines (C33A cells and Caski cells); assay: Proliferation of human cervical cancer cell lines (Example 33, FIG. 7); format: cell-based
Protocol: Another experiment was also conducted to compare the effect of three different retinoid compounds according to the invention, i.e., 6-[3-(1-adamantyl)-4-methoxyphenyl]-2-naphthoic acid, 2-[3-(1-adamantyl)-4-methoxyphenyl]-5-benzimidazole carboxylic acid, and 6-[3-(1-adamantyl)-4,5-methylenedioxyphenyl]-2-naphthoic acid, a control (DMSO), and a control retinoid (all-trans retinoic acid) on the proliferation of several human cervical cancer cell lines (C33A cells and Caski cells).

SMILES: O=C(O)c1ccc2cc(-c3cc4c(c(C56CC7CC(CC(C7)C5)C6)c3)OCO4)ccc2c1 [Compound 6, 6-[3-(1-adamantyl)-4,5-methylenedioxyphenyl]-2-naphthoic acid]
- Types of Cancers and Precancers Active Against [1]: brain, breast, head and neck,; also recorded: kidney, leukemia, lung, lym-; also recorded: phoma, myeloma, ovarian,; also recorded: prostate, skin, liver, cervical; also recorded: (including, e.g., cervical; also recorded: intraepithelial neoplasia I, II,; also recorded: III),
- anti-cancer activity [2]: significant anti-cancer activity
- tumor size [3]: substantial reduction in tumor size
- effect on proliferation of human cervical cell lines [4]: strong inhibitory effect
